In patent US7148029B2, “Immunoassay for neonicotinyl insecticides” (Syngenta Crop Protection, Inc., priority 1999, dated 2006):

Key:
[1] = system: polyclonal antibody of the thiamethoxam immunoassay; test: Cross reactivity of the thiamethoxam immunoassay (competitive enzyme immunoassay in antibody-coated tubes); type: binding; set-up: key to Percent Reactivity Relative to Thiamethoxam: NR, non-reactive; conditions: for Percent Reactivity Relative to Thiamethoxam: test substances in 1% methanol/water, 1000 to 0.01 ng/ml
Procedure: The antibody-coated polystyrene culture tubes are labeled and placed in the tube rack such that the first and last tubes are standards and the remaining standards and samples are mixed. Sample and standard solutions (0.50-ml) are added to the corresponding tubes. A similar volume of enzyme conjugate solution is added. The rack is gently shaken to mix the solutions and set to incubate for 20 min at room temperature. The contents of all tubes are removed by inverting the rack over a stainless steel pan. Each tube is washed to overflowing with distilled water. The rack is inverted over the sink to dump the wash water. Washing is repeated four times. Then the rack is inverted and tapped gently on a paper towel to remove most of the remaining wash. […] The rack is gently shaken at 2.5 min intervals to ensure the enzyme maintains an ample supply of substrate. Generation of the blue colored signal is terminated by addition of acidic stop solution (0.50-ml). The absorbance of the solution in each tube is measured spectrophotometrically at 450 nm.
The concentration of analyte in the samples is determined from a regression function in the form of y=m ln(x)+b.
The cross reactivity, or specificity, of the immunoassay is evaluated to determine if other test substances found in seed coatings would interfere with measurement of thiamethoxam. Test substances are dissolved in 1% methanol/water to concentrations ranging from 1000 to 0.01 ng/ml. Aliquots of each concentration are analyzed as described above. The reactivity of each test substance over this range is determined as previously described in Brady, J. F; Turner, J.; Skinner, D. H. “Application of a triasulfuron enzyme immunoassay to the analysis of incurred residues in soil and water samples.” J. Agric. Food Chem. 1995, 43:2542–2547.

[2] = system: polyclonal antibody of the thiamethoxam immunoassay; test: Typical standard curve for the thiamethoxam immunoassay; type: binding
Procedure: A portion of the seed extract is diluted into 1% MeOH/H2O until the expected concentration of thiamethoxam is brought within range of the calibration curve, 0.5 to 120 parts per billion. Antibody-coated tubes are labeled and placed in a tube rack such that the first and last tubes are standards and the remaining standards and samples are intermixed. The tube rack grips each tube such that the rack may be inverted without loss of the tubes. An aliquot of a standard or sample (0.5 mL) is added to all corresponding tubes. Enzyme conjugate solution (0.5 mL) is added to all tubes. The rack is shaken gently to mix the contents of all tubes. Tubes are incubated for 20 min at room temperature. The rack is inverted to decant the contents of all tubes. Distilled H2O is added to all tubes to overflowing using a flip-top wash bottle and the wash is decanted. Tubes are washed an additional three times. After the final wash, the rack is inverted and the tubes are gently tapped upon a clean paper towel to remove excess wash. Enzyme substrate (0.5 mL) is added to all tubes which are incubated for 10 min at room temperature. The rack is shaken gently every 2.5 min during this incubation. Acidic stop solution (1 M HCl, 0.5 mL) is added to all tubes to terminate signal generation. […] The absorbances of the standards are used to construct a calibration curve, a regression function in the form of […]. The absorbance of each sample is inserted into the function to determine the concentration of the neonicotinoid pesticide in the diluted sample. The resulting concentration is multiplied by the dilution factor to calculate the amount of neonicotinoid pesticide in the original sample. The function describing the response of the thiamethoxam standards is generated by regression analysis.

Structure (SMILES)	Percent Reactivity Relative to Thiamethoxam [1]	further results
O=C1C2CC=CCC2C(=O)N1SC(Cl)(Cl)Cl (stereo not drawn) [Captan]	NR	
CN/C(=N\[N+](=O)[O-])NCc1cnc(Cl)s1 [Clothiadin]	<1.0%	
CCN(CC)c1nc(C)cc(OP(=S)(OC)OC)n1 [Primifos-methyl]	NR	
CN1COCN(Cc2cnc(Cl)s2)/C1=N\[N+](=O)[O-] [Thiamethoxam]	100%	reactivity with the immunoassay (in words) ([1]; among the test substances analyzed): significantly reactive; Absorbance at 450 nm (Analytical response) ([2]; Concentration of Thiamethoxam 0.5 Parts Per Billion): 1.3618; Absorbance at 450 nm (Analytical response) ([2]; Concentration of Thiamethoxam 3 Parts Per Billion): 1.0283; Absorbance at 450 nm (Analytical response) ([2]; Concentration of Thiamethoxam 20 Parts Per Billion): 0.6636; Absorbance at 450 nm (Analytical response) ([2]; Concentration of Thiamethoxam 120 Parts Per Billion): 0.3145
COCC(=O)N(c1c(C)cccc1C)[C@H](C)C(=O)OC [Mefenoxam (R-Metalaxyl), Mefenoxam]	NR	
N#CSCSc1nc2ccccc2s1 [TCMTB]	NR	
CCOP(=S)(OCC)Oc1nc(Cl)c(Cl)cc1Cl [Chlorpyrifos]	NR	
CCCCC(C#N)(Cn1cncn1)c1ccc(Cl)cc1 (stereo not drawn) [Systhane (Myclobutanil), Myclobutanil]	NR	
N#Cc1c[nH]cc1-c1cccc2c1OC(F)(F)O2 [Fludioxonil]	NR	
COCC(=O)N(c1c(C)cccc1C)C(C)C(=O)OC (stereo not drawn) [Metalaxyl]	NR	
CC1COC(Cn2cncn2)(c2ccc(Oc3ccc(Cl)cc3)cc2Cl)O1 (stereo not drawn) [Difenoconazole]	NR	
O=[N+]([O-])c1c(Cl)c(Cl)c(Cl)c(Cl)c1Cl [Pentachloronitrobenzene]	NR	
O=[N+]([O-])NC1=NCCN1Cc1ccc(Cl)nc1 [Imidacloprid]	^2NR	
CC1=C(C(=O)Nc2ccccc2)SCCO1 [Carboxin]	NR	
COC(=O)NC(=S)Nc1ccccc1NC(=S)NC(=O)OC [Thiophanate-methyl]	NR	
FC(F)(F)C(=NOCC1OCCO1)c1ccc(Cl)cc1 [Fluxofenim]	NR	
